Tested on: subject on metformin (type 2 diabetes)
Assay: Blood glucose response after a standard meal under three treatment regimens (Example 1)
Type: in vivo, human
Details: control regimen: metformin 500 mg with the standard meal, no pre-meal drink; after overnight fasting
Experimental: This example compares the blood glucose response in a subject on a dosage of metformin of 500 mg (immediate release dosage) taken twice per day using three different treatment regimens after overnight fasting on separate dates.
The three treatment regimens were as follows: • 1. Regimen in accordance with the invention in which a dose of 500 mg mg of metformin as a (immediate release) tablet 30 minutes before a standard meal followed by a standard drink 15 minutes before the standard meal. Blood glucose levels with time are shown in plot 1 of FIG. 1. • 2. Control Regimen in which the metformin medication was administered with the standard meal without the pre-meal drink. Blood glucose levels with time are shown in plot 2 of FIG. 1. • 3. Comparison regimen in which the standard drink was administered 15 minutes before a meal and the metformin medication was administered with the standard meal. Blood glucose levels with time are shown in plot 3 of FIG. 1.
The standard pre-meal drink used in Example 1 was formed of the following composition: • 20 g WPC-80 • 5 g guar gum • 150 ml water
The drink was prepared by mixing the powder with water according to the following procedure: • 20 g of WPC80 (whey protein concentrate) and 5 g of guar gum were mixed together as a powder. […] The lid was removed ready for the participant to consume immediately. […]

## CN(C)C(=N)N=C(N)N [metformin, Metformin]
  post-prandial blood glucose with time (FIG. 1, Plot 2): significant rise in post-prandial glucose for a period of over 60 minutes
